Measurements: patent US10329289B2, “6,7-dihydro-5H-pyrrolo[3,4-B]pyridin-5-one allosteric modulators of the M4 muscarinic acetylcholine receptor” (Merck Sharp & Dohme Corp., priority 2015, dated 2019)

Molecular target: T1, human M4 muscarinic acetylcholine receptor (Homo sapiens, UniProt P08173)
T1 construct: expressed in transfected cells; host or cells: CHO-K1
T1 sequence (P08173 1-479): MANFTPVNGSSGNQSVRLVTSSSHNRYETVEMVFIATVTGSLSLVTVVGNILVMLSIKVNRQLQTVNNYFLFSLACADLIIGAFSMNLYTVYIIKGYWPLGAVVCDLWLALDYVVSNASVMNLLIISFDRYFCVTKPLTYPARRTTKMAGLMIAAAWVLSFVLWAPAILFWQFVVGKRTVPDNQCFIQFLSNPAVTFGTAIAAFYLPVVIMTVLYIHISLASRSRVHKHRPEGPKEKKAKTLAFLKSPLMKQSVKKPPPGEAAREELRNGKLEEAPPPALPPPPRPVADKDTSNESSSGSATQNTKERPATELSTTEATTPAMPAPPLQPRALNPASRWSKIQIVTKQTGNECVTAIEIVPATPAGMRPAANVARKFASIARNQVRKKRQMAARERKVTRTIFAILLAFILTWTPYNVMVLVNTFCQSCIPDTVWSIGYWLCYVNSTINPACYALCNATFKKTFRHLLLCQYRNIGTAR
Assay: human FLIPR-based M4 PAM assay (Ca2+ mobilization, CHO-K1 cells with human M4 receptor and Gαqi5)
Format: cell-based
Conditions: acetylcholine at 20% of maximum response, read-out: M4 PAM IP
Outline: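 Calcium-mobilization (FLIPR) readout in dye-loaded CHO-K1 cells co-expressing human M4 receptor and Gαqi5. Potentiation measured against acetylcholine at a concentration giving 20% of maximal response, with an optional 70% addition; the reported value is the curve inflection point from a 4-parameter logistic fit.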

Compound	EC50 [nM]
Cc1cc2c(nc1N1CCC(OCC3(C)CC3(F)F)CC1)CNC2=O (stereo not drawn) [Example 64, 2-(4-((2,2-difluoro-1-methylcyclopropyl)methoxy)piperidin-1-yl)-3-methyl-6,7-dihydro-5H-pyrrolo[3,4-b]pyridin-5-one]	206
Cc1cc2c(nc1N1CCC(OCC3(F)CC3)CC1)CNC2=O [Example 64A, 2-(4-((1-fluorocyclopropyl)methoxy)piperidin-1-yl)-3-methyl-6,7-dihydro-5H-pyrrolo[3,4-b]pyridin-5-one]	192
Cc1cc2c(nc1N1CCC(OCCC3(C)CC3)CC1)CNC2=O [Example 65A, 3-methyl-2-(4-(2-(1-methylcyclopropyl)ethoxy)piperidin-1-yl)-6,7-dihydro-5H-pyrrolo[3,4-b]pyridin-5-one]	164
Cc1cncc(OC2CCN(c3nc4c(cc3C)C(=O)NC4)CC2)c1 [Example 66, 3-Methyl-2-(4-((5-methylpyridin-3-yl)oxy)piperidin-1-yl)-6,7-dihydro-5H-pyrrolo[3,4-b]pyridin-5-one]	84
Cc1cc2c(nc1N1CCC(Oc3cnc4[nH]ccc4c3)CC1)CNC2=O [Example 70, 2-(4-((1H-pyrrolo[2,3-b]pyridin-5-yl)oxy)piperidin-1-yl)-3-methyl-6,7-dihydro-5H-pyrrolo[3,4-b]pyridin-5-one]	79
Cc1cc2c(nc1N1CCC(Oc3cccc(F)c3)CC1)CNC2=O [Example 71]	42
Cc1cc2c(nc1N1CCC(Oc3ccc(F)cc3)CC1)CNC2=O [Example 72, 2-(4-(4-fluorophenoxy)piperidin-1-yl)-3-methyl-6,7-dihydro-5H-pyrrolo[3,4-b]pyridin-5-one]	30
Cc1cc2c(nc1N1CCC(Oc3cccc(Cl)c3)CC1)CNC2=O [Example 74, 2-(4-(3-chlorophenoxy)piperidin-1-yl)-3-methyl-6,7-dihydro-5H-pyrrolo[3,4-b]pyridin-5-one]	46
Cc1cc2c(nc1N1CCC(Oc3ccccc3F)CC1)CNC2=O [Example 75, 2-(4-(2-fluorophenoxy)piperidin-1-yl)-3-methyl-6,7-dihydro-5H-pyrrolo[3,4-b]pyridin-5-one]	236
Cc1cc2c(nc1N1CCC(Oc3ccc(Cl)cc3)CC1)CNC2=O [Example 76, 2-(4-(4-chlorophenoxy)piperidin-1-yl)-3-methyl-6,7-dihydro-5H-pyrrolo[3,4-b]pyridin-5-one]	80
Cc1cc2c(nc1N1CCC(Oc3ccncc3)CC1)CNC2=O [Example 77, 3-methyl-2-(4-(pyridin-4-yloxy)piperidin-1-yl)-6,7-dihydro-5H-pyrrolo[3,4-b]pyridin-5-one]	214
Cc1cccc(OC2CCN(c3nc4c(cc3C)C(=O)NC4)CC2)c1 [Example 78, 3-methyl-2-(4-(m-tolyloxy)piperidin-1-yl)-6,7-dihydro-5H-pyrrolo[3,4-b]pyridin-5-one]	33
Cc1ccccc1OC1CCN(c2nc3c(cc2C)C(=O)NC3)CC1 [Example 79, 3-methyl-2-(4-(o-tolyloxy)piperidin-1-yl)-6,7-dihydro-5H-pyrrolo[3,4-b]pyridin-5-one]	2280
Cc1cc2c(nc1N1CCC(Oc3ccc(F)c(F)c3)CC1)CNC2=O [Example 81, 2-(4-(3,4-difluorophenoxy)piperi-din-1-yl)-3-methyl-6,7-dihydro-5H-pyrrolo[3,4-b]pyridin-5-one]	37
Cc1ccc(OC2CCN(c3nc4c(cc3C)C(=O)NC4)CC2)cc1Cl [Example 82, 2-(4-(3-chloro-4-methylphenoxy)piperidin-1-yl)-3-methyl-6,7-dihydro-5H-pyrrolo[3,4-b]pyridin-5-one]	121
Cc1cc2c(nc1N1CCC(Oc3ccc(C#N)nc3)CC1)CNC2=O [Example 85, 5-((1-(3-methyl-5-oxo-6,7-dihydro-5H-pyrrolo[3,4-b]pyridin-2-yl)piperidin-4-yl)oxy)picolinonitrile]	2620
Cc1cc2c(nc1N1CCC(Oc3ccon3)CC1)CNC2=O [Example 86, 2-(4-(isoxazol-3-yloxy)piperidin-1-yl)-3-methyl-6,7-dihydro-5H-pyrrolo[3,4-b]pyridin-5-one]	5690
COC(=O)c1ccc(OC2CCN(c3nc4c(cc3C)C(=O)NC4)CC2)cn1 [Example 87, methyl 5-((1-(3-methyl-5-oxo-6,7-dihydro-5H-pyrrolo[3,4-b]pyridin-2-yl)piperidin-4-yl)oxy)picolinate]	1000
Cc1cc2c(nc1N1CCC(Oc3ccc(C(F)(F)F)nc3)CC1)CNC2=O [Example 88, 3-methyl-2-(4-((6-(trifluoromethyl)pyridin-3-yl)oxy)piperidin-1-yl)-6,7-dihydro-5H-pyrrolo[3,4-b]pyridin-5-one]	381
COc1cc(OC2CCN(c3nc4c(cc3C)C(=O)NC4)CC2)ccn1 [Example 90, 2-(4-((2-methoxypyridin-4-yl)oxy)piperidin-1-yl)-3-methyl-6,7-dihydro-5H-pyrrolo[3,4-b]pyridin-5-one]	94
Cc1cc2c(nc1N1CCC(Oc3ccc4cccnc4c3)CC1)CNC2=O [Example 92, 3-methyl-2-(4-(quinolin-7-yloxy)piperidin-1-yl)-6,7-dihydro-5H-pyrrolo[3,4-b]pyridin-5-one]	461
Cc1cc2c(nc1N1[C@@H]3CC[C@H]1C[C@@H](Oc1cccc(C#N)c1)C3)CNC2=O [Example 95, 3-((endo-8-(3-methyl-5-oxo-6,7-dihydro-5H-pyrrolo[3,4-b]pyridin-2-yl)-8-azabicyclo[3.2.1]octan-3-yl)oxy)benzonitrile]	616

Further lines, results first:

EC50 [nM]	Compound
75	Cc1cc2c(nc1N1CC[C@@H](Oc3cnc4c(c3)COC4)[C@@H](F)C1)CNC2=O [Example 65, 2-((3S,4R)-4-((5,7-dihydrofuro[3,4-b]pyridin-3-yl)oxy)-3-fluoropiperidin-1-yl)-3-methyl-6,7-dihydro-5H-pyrrolo[3,4-b]pyridin-5-one]
136	Cc1cc2c(nc1N1CCC(Oc3ccc4c(c3)C(=O)N(C)C4)CC1)CNC2=O [Example 67, 3-methyl-2-(4-((2-methyl-3-oxoisoindolin-5-yl)oxy)piperidin-1-yl)-6,7-dihydro-5H-pyrrolo[3,4-b]pyridin-5-one]
79	Cc1cc2c(nc1N1CCC(Oc3cccnc3)CC1)CNC2=O [Example 68, 3-methyl-2-(4-(pyridin-3-yloxy)piperidin-1-yl)-6,7-dihydro-5H-pyrrolo[3,4-b]pyridin-5-one]
88	Cc1nc2ccc(OC3CCN(c4nc5c(cc4C)C(=O)NC5)CC3)cc2o1 [Example 69, 3-methyl-2-(4-((2-methylbenzo[d]oxazol-6-yl)oxy)piperidin-1-yl)-6,7-dihydro-5H-pyrrolo[3,4-b]pyridin-5-one]
2250	Cc1cc2c(nc1N1CCC(Oc3ccccc3Cl)CC1)CNC2=O [Example 73, 2-(4-(2-chlorophenoxy)piperidin-1-yl)-3-methyl-6,7-dihydro-5H-pyrrolo[3,4-b]pyridin-5-one]
69	Cc1cc2c(nc1N1CCC(Oc3ccc4ocnc4c3)CC1)CNC2=O [Example 80, 2-(4-(benzo[d]oxazol-5-yloxy)piperidin-1-yl)-3-methyl-6,7-dihydro-5H-pyrrolo[3,4-b]pyridin-5-one]
48	Cc1ccc(OC2CCN(c3nc4c(cc3C)C(=O)NC4)CC2)cc1 [Example 83, 3-methyl-2-(4-(p-tolyloxy)piperidin-1-yl)-6,7-dihydro-5H-pyrrolo[3,4-b]pyridin-5-one]
229	Cc1cc2c(nc1N1CCC(Oc3ccc(C#N)cc3)CC1)CNC2=O [Example 84, 4-((1-(3-methyl-5-oxo-6,7-dihydro-5H-pyrrolo[3,4-b]pyridin-2-yl)piperidin-4-yl)oxy)benzonitrile]
83	Cc1cc2c(nc1N1CCC(Oc3ccc4ncoc4c3)CC1)CNC2=O [Example 89, 2-(4-(benzo[d]oxazol-6-yloxy)piperidin-1-yl)-3-methyl-6,7-dihydro-5H-pyrrolo[3,4-b]pyridin-5-one]
60	Cc1cc2c(nc1N1CCC(Oc3ccc(F)nc3)CC1)CNC2=O [Example 91, 2-(4-((6-fluoropyridin-3-yl)oxy)piperidin-1-yl)-3-methyl-6,7-dihydro-5H-pyrrolo[3,4-b]pyridin-5-one]
944	Cc1cc2c(nc1N1CCC(Oc3ccnc(C#N)c3)CC1)CNC2=O [Example 93, 4-((1-(3-methyl-5-oxo-6,7-dihydro-5H-pyrrolo[3,4-b]pyridin-2-yl)piperidin-4-yl)oxy)picolinonitrile]
148	CCc1cc2c(nc1N1CCC(Oc3cccc(C#N)c3)CC1)CNC2=O [Example 93A, 3-((1-(3-ethyl-5-oxo-6,7-dihydro-5H-pyrrolo[3,4-b]pyridin-2-yl)piperidin-4-yl)oxy)benzonitrile]
1730	COc1ncc(OC2CCN(c3nc4c(cc3C)C(=O)NC4)CC2)cn1 [Example 94, 2-(4-((2-methoxypyrimidin-5-yl)oxy)piperidin-1-yl)-3-methyl-6,7-dihydro-5H-pyrrolo[3,4-b]pyridin-5-one]
193	Cc1c(N2CCC(Oc3cccc(C#N)c3)CC2)nc2c(c1C)C(=O)NC2 [Example 94A, 3-((1-(3,4-dimethyl-5-oxo-6,7-dihydro-5H-pyrrolo[3,4-b]pyridin-2-yl)piperidin-4-yl)oxy)benzonitrile]
